Laboratory results as given in patent US12678427B2, “Combination therapy having antioxydant properties” (GENFIT, priority 2019, dated 2026).

Tested on: Nrf2-ARE-mediated transcription
Experiment: ARE Reporter - HepG2 cell line luciferase assay
Type: cell-based, human
Conditions: ARE reporter HepG2 cells, TZ 1 μM, ELA 3 μM, 18 h exposure, significant = fold induction over DMSO above 2 and p<0.05
Experimental: The ARE Reporter—Hep G2 cell line is designed to monitor Nrf2 antioxidant response pathway. The cell contains a firefly luciferase gene under the control of ARE (antioxidant response element) stably integrated into Hep G2 cells.
ARE reporter—HepG2 cells (BPS Bioscience, Inc., San Diego, cat #60513) were cultured following manufacturer's instructions. After thawing (BPS thaw medium 1K, cat #60187), cells were cultured in growth-medium (BPS growth medium 1K, cat #79533) and subsequently plated at a density of 40 000 cells per well in a 96-well microplate in 45 μL of assay medium (BPS thaw medium). TZ, ELA and DL-Sulforaphane (Sigma cat #S4441) were dissolved in DMSO and diluted into assay medium. 5 μl of dilution were added on cells to reach a final concentration of 1 μM for TZ and 3 μM for ELA. DL-Sulforaphane was used as a positive control at the dose of 3 μM. After 18 h exposure, luciferase activity was determined. 50 μL of One-Step Luciferase assay system (BPS cat #60690) were added per well and after ~15 min of rocking at room temperature, luminescence was measured using a luminometer.
Fold induction over DMSO above 2 and with a p-value <0.05 was considered as significant.

## O=C(Nc1ncc([N+](=O)[O-])s1)c1ccccc1O [TZ]
  activation of Nrf2-antioxidant pathway compared to the untreated condition: induces a significant activation
